Molecules are shown by their SMILES. pIC50: −log10 of the molar value. Like-named read-outs stand apart in the source and are kept apart here.

The term pIC50 denotes the negative decadic logarithm of the IC50, by convention in mol/L.

One assay has as its target human FXIa (Homo sapiens, UniProt P03951). Description: In vitro activated factor XI (FXIa) inhibition test. Format: biochemical. Here is the method:
To the substrate, S-2366 (pyroGlu-Pro-Arg-pNA•HCl) was added to a final concentration of 300 µmol/L. After the reaction had progressed, the absorbance at OD 405 nm was measured. […]

Assay [1] concerns rabbit model with venous thrombus. Description: Rabbit in vivo antithrombotic action evaluation test (venous thrombus model, thrombus weight). The note with it: i.v. From the text:
A rabbit model with venous thrombus was produced by modifying the report of Wienen et al. (Wienen W. et al., J. Thromb. Haemost. 5:1237-1242 (2007)). A male rabbit (JW, 2-4 kg) was narcotized by inhalation of isoflurane (ISOFLU®, manufactured by DS Pharma Animal Health) (inductive anesthesia: 4%, continuous anesthesia: 1.5% to 2.5%). For intravenous administration of a test agent and blood collection, catheters were inserted into the left femoral vein and the left femoral artery. The left external jugular vein was exposed (2 cm) from a branch of the facial vein, the microvascular branch was then ligated, and a catheter was then inserted into the posterior facial vein. The external jugular vein (2 cm) exposed from each of an anterior facial vein branch and a facial vein branch was ligated with an artery clamp, and blood was then removed from a catheter left in the posterior facial vein. Blood in the blood vessel was washed with a normal saline, and 0.5% polidocanol (manufactured by Sigma) was injected into the blood vessel. It was then left for 5 minutes, so that the occurrence of a disorder in vascular endothelium was provoked. Thereafter, 0.5% polidocanol was removed, the inside of the blood vessel was then washed with a normal saline, and the artery clamp was then removed. The external jugular vein (2 cm) exposed from the facial vein branch, together with an injection needle 21G (manufactured by Terumo), was ligated with a silk thread, so that the inner diameter of the blood vessel was reduced to 0.8 mm. Twenty-five minutes after recirculation of the blood flow, the external jugular vein (2cm) exposed from the facial vein branch was excised, and the wet weight and dry weight of a thrombus formed in the blood vessel were measured. A test agent or a vehicle was administered to the rabbit 2 minutes before recirculation of the blood flow.

Assay [2] relates to endogenous coagulation pathway. Description: Activated partial thromboplastin time (aPTT) of blood sample from the rabbit venous thrombus test. Format: in vivo. The note with it: i.v.; for aPTT: blood collected 2 minutes after administration. Here is the method:
In order to measure the activated partial thromboplastin time (aPTT) of the blood sample, which was to be used as an indicator of an endogenous coagulation pathway, 2 minutes after the administration of the test agent or the vehicle, blood was collected, and plasma was then prepared using 3.2% sodium citrate. The prepared plasma was incubated at 37°C for 7 minutes, and an STA reagent Cephascreen (used for aPTT measurement; manufactured by Roche Diagnostics) was added in an equal amount to the resulting plasma, and the obtained mixture was further incubated for 3 minutes. Thereafter, STA calcium chloride (manufactured by Roche Diagnostics) was added in an equal amount to the resultant, and the time required until coagulation was then measured.

The mark [3] stands for this setting: 0.35 µg/mL human FXIa, substrate S-2366 300 µmol/L, 37°C, 10 minutes, OD 405 nm, read-out: FXIa inhibitory activity IC50.

Chain of human FXIa (P03951 388-625 limits assumed): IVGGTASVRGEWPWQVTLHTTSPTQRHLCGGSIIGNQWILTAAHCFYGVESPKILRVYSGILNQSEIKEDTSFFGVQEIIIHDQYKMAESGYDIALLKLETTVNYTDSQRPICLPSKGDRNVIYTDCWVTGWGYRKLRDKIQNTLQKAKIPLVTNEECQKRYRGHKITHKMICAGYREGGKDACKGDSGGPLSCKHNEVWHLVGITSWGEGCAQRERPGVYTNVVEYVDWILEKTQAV
Chain of human FXIa (P03951 19-387 partner limits assumed): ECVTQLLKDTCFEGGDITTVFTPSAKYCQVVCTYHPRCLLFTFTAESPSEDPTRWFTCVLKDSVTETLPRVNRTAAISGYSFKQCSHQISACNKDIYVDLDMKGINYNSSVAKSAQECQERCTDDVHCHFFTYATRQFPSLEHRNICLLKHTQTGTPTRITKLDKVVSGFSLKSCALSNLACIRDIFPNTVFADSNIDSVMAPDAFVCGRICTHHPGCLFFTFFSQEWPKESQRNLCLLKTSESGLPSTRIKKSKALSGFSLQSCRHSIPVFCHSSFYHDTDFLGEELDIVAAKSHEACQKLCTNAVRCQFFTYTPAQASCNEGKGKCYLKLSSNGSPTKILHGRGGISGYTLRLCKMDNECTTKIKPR

Compound `COC1CCC([C@H]2CCN(C(=O)[C@H]3CC[C@H]([C@H](N)CF)CC3)[C@H]2C(=O)Nc2ccc3oc(C(=O)O)cc3c2)CC1` (some centres unmarked) [compound 187] had a pIC50 against human FXIa of 6.55. In the case of `N[C@H](CF)[C@H]1CC[C@H](C(=O)N2CC[C@H](c3ccccc3)[C@H]2C(=O)Nc2ccc3[nH]c(C(=O)NS(=O)(=O)N4CCOCC4)cc3c2)CC1` [compound 122], the pIC50 against human FXIa was 6.16.

Turning to `NC(CF)[C@H]1CC[C@H](C(=O)N2CC[C@@H](C3CCCCC3)[C@H]2C(=O)Nc2ccc3[nH]c(C(=O)O)cc3c2)CC1` (some centres unmarked) [compound 35], the pIC50 on human FXIa (setting [3]) is 7.85. Turning to `NC(CF)[C@H]1CC[C@H](C(=O)N2CC[C@@H](C3CCCCC3)[C@H]2C(=O)Nc2ccc3[nH]c(C(=O)O)c(Cl)c3c2)CC1` (some centres unmarked) [compound 34], on human FXIa (setting [3]), the pIC50 is 7.55.

With `N[C@H](CF)[C@H]1CC[C@H](C(=O)N2CC[C@@H](C3CCCCC3)[C@H]2C(=O)Nc2ccc(C(=O)NS(=O)(=O)c3ccccc3)cc2)CC1` [compound 118], the pIC50 against human FXIa was 7.19.

Consider `N[C@H](C(F)F)[C@H]1CC[C@H](C(=O)N2CC[C@@H](C3CCCCC3)[C@H]2C(=O)Nc2ccc3oc(C(=O)O)cc3c2)CC1` [compound 146], for which the negative-log IC50 (pIC50) on human FXIa (setting [3]) was 6.04.

For the compound `CS(=O)(=O)NC(=O)c1cc2cc(NC(=O)[C@@H]3[C@H](C4CCCCC4)CCN3C(=O)[C@H]3CC[C@H]([C@H](N)CF)CC3)ccc2[nH]1` [compound 114], on human FXIa (setting [3]), the pIC50 is 8.15. Regarding `CS(=O)(=O)NC(=O)c1ccc(NC(=O)[C@@H]2[C@H](C3CCCCC3)CCN2C(=O)[C@H]2CC[C@H]([C@H](N)CF)CC2)cc1` [compound 147], the negative logarithm of the IC50 (pIC50) at human FXIa (setting [3]) was 6.69.

As for `CN(C)S(=O)(=O)NC(=O)c1cc2cc(NC(=O)[C@@H]3[C@H](C4CCCCC4)CCN3C(=O)[C@H]3CC[C@H]([C@H](N)CF)CC3)ccc2o1` [compound 211], the pIC50 on human FXIa (setting [3]) is 7.54.

For the compound `NC(CF)[C@H]1CC[C@H](C(=O)N2CC[C@@H](C3CCCCC3)[C@H]2C(=O)Nc2ccc3oc(C(=O)O)cc3c2)CC1` (some centres unmarked) [compound 50], at human FXIa, the negative logarithm of the IC50 (pIC50) was 7.08.

With `Cc1c(C(=O)O)[nH]c2ccc(NC(=O)[C@@H]3[C@H](C4CCCCC4)CCN3C(=O)[C@H]3CC[C@H](C(N)CF)CC3)cc12` (some centres unmarked) [compound 39], at human FXIa (setting [3]), the negative-log IC50 (pIC50) was 7.20. As for `N[C@H](CF)[C@H]1CC[C@H](C(=O)N2CC[C@@H](C3CCCCC3)[C@H]2C(=O)Nc2ccc3oc(C(=O)NS(=O)(=O)N4CCOCC4)cc3c2)CC1` [compound 212], the pIC50 against human FXIa is 8.10. In turn, `N[C@H](CF)[C@H]1CC[C@H](C(=O)N2CC[C@@H](C3CCCCC3)[C@H]2C(=O)Nc2ccc(C(=O)NS(=O)(=O)c3ccccn3)cc2)CC1` [compound 134] showed a negative-log IC50 (pIC50) at human FXIa of 7.27. For `COC1CCC([C@@H]2CCN(C(=O)[C@H]3CC[C@H]([C@H](N)CF)CC3)[C@@H]2C(=O)Nc2ccc3oc(C(=O)O)cc3c2)CC1` (some centres unmarked) [compound 102], on human FXIa, the negative-log IC50 (pIC50) is 7.03. Consider `Cc1noc(-c2ccc(NC(=O)[C@@H]3[C@H](C4CCCCC4)CCN3C(=O)[C@H]3CC[C@H]([C@H](N)CF)CC3)cc2)n1` [compound 115], for which, on human FXIa (setting [3]), the negative logarithm of the IC50 (pIC50) was 5.82. As for `N[C@H](CF)[C@H]1CC[C@H](C(=O)N2CCC(C3CCCCC3)[C@H]2C(=O)Nc2ccc3sc(C(=O)O)cc3c2)CC1` (single isomer, unassigned) [compound 130], at human FXIa, the negative-log IC50 (pIC50) is 6.71. In the case of `COC1CCC([C@@H]2CCN(C(=O)[C@H]3CC[C@H]([C@H](N)CF)CC3)[C@@H]2C(=O)Nc2ccc3oc(C(=O)O)cc3c2)CC1` (some centres unmarked) [compound 103], the pIC50 at human FXIa (setting [3]) was 5.63.

As to `NC[C@H]1CC[C@H](C(=O)N2CC[C@@H](c3ccccc3)[C@H]2C(=O)Nc2ccc(-c3nc(=O)o[nH]3)c(F)c2)CC1` [compound 14], the negative-log IC50 (pIC50) at human FXIa (setting [3]) was 6.89. For `COC(=O)Nc1nc2ccc(NC(=O)[C@@H]3[C@H](C4CCCCC4)CCN3C(=O)[C@H]3CC[C@H]([C@H](N)CF)CC3)cc2s1` [compound 148], the pIC50 on human FXIa (setting [3]) was 6.85.

Take `N[C@H](CF)[C@H]1CC[C@H](C(=O)N2CC[C@@H](C3CCCCC3)[C@H]2C(=O)Nc2ccc(C(=O)O)cc2)CC1` [compound 96]: the negative-log IC50 (pIC50) at human FXIa (setting [3]) was 7.01. On to `NC[C@H]1CC[C@H](C(=O)N2CCC(c3ccccc3)[C@H]2C(=O)Nc2ccc3[nH]c(C(N)=O)cc3c2)CC1` (some centres unmarked) [compound 24], for which the pIC50 on human FXIa (setting [3]) is 7.47.

For `Cc1c(C(=O)O)oc2ccc(NC(=O)[C@@H]3[C@H](C4CCCCC4)CCN3C(=O)[C@H]3CC[C@H]([C@H](N)CF)CC3)cc12` [compound 55], on human FXIa (setting [3]), the negative-log IC50 (pIC50) is 6.66. Take `COCCOCCCOC(=O)c1cc2cc(NC(=O)[C@@H]3[C@H](C4CCC(OC)CC4)CCN3C(=O)[C@H]3CC[C@H]([C@H](N)CF)CC3)ccc2o1` (some centres unmarked) [compound 196]: the negative-log IC50 (pIC50) at human FXIa is 5.46. For the compound `N[C@H](CF)[C@H]1CC[C@H](C(=O)N2CC[C@@H](C3CCCCC3)[C@H]2C(=O)Nc2ccc(C(=O)NS(=O)(=O)c3ccccc3)c(F)c2)CC1` [compound 133], the pIC50 on human FXIa (setting [3]) is 7.00. With `N[C@H](CF)[C@H]1CC[C@H](C(=O)N2CCC(C3CCCCC3)[C@H]2C(=O)Nc2ccc3oc(C(=O)O)cc3c2)CC1` (single isomer, unassigned) [compound 53], the “Thrombus (% inhibition)” value in assay [1] (dose 0.1 mg/kg) is listed as 25%; in assay [1] (dose 0.3 mg/kg), 56%; in assay [1] (dose 1.0 mg/kg) it was 79%; in assay [1] (dose 3.0 mg/kg), 80%. The “Thrombus weight” value amounted to 51.3 mg in assay [1] (dose 0.1 mg/kg), 30.3 mg in assay [1] (dose 0.3 mg/kg), 14.7 mg in assay [1] (dose 1.0 mg/kg) and 14.0 mg in assay [1] (dose 3.0 mg/kg). For the same compound, the “aPTT (% vehicle)” value came out at 103% in assay [2] (dose 0.1 mg/kg), 117% in assay [2] (dose 0.3 mg/kg), 140% in assay [2] (dose 1.0 mg/kg) and 166% in assay [2] (dose 3.0 mg/kg). The “aPTT” value in assay [2] (dose 0.1 mg/kg) is on record as 17.8 s; in assay [2] (dose 0.3 mg/kg) it was 20.3 s; in assay [2] (dose 1.0 mg/kg), 24.2 s; in assay [2] (dose 3.0 mg/kg), 28.8 s. Besides, the pIC50 against human FXIa is 7.47.

With `Cn1c(C(=O)O)cc2cc(NC(=O)[C@@H]3[C@H](C4CCCCC4)CCN3C(=O)[C@H]3CC[C@H](C(N)CF)CC3)ccc21` (some centres unmarked) [compound 29], the negative logarithm of the IC50 (pIC50) at human FXIa (setting [3]) was 7.09. At human FXIa, `N[C@H](CF)[C@H]1CC[C@H](C(=O)N2CC[C@@H](C3CCCCC3)[C@H]2C(=O)Nc2ccc(C(=O)NCc3ccccn3)cc2)CC1` [compound 137] had a pIC50 of 6.42. As to `N[C@H](CF)[C@H]1CC[C@H](C(=O)N2CC[C@@H](C3CCCCC3)[C@H]2C(=O)Nc2ccc3[nH]c(C(=O)NS(=O)(=O)N4CCCCC4)cc3c2)CC1` [compound 213], on human FXIa (setting [3]), the pIC50 was 8.00. `N[C@H](CF)[C@H]1CC[C@H](C(=O)N2CC[C@@H](C3CCCCC3)[C@H]2C(=O)Nc2ccc3[nH]c(C(=O)O)c(Cl)c3c2)CC1` [compound 184]: the pIC50 on human FXIa (setting [3]) was 7.52. `N[C@H](CF)[C@H]1CC[C@H](C(=O)N2CC[C@@H](C3CCCCC3)[C@H]2C(=O)Nc2ccc3oc(C(=O)NS(=O)(=O)c4ccccc4)cc3c2)CC1` [compound 121] had a pIC50 on human FXIa of 7.37. As to `CC(N)[C@H]1CC[C@H](C(=O)N2CC[C@H](c3ccccc3)[C@H]2C(=O)Nc2ccc3oc(C(=O)O)cc3c2)CC1` (some centres unmarked) [compound 46], the negative-log IC50 (pIC50) at human FXIa (setting [3]) was 7.05.

For the origin of these results see patent publication EP2876105A1, “1-(CYCLOALKYL-CARBONYL)PROLINE DERIVATIVE” (Sumitomo Dainippon Pharma Co., Ltd., priority 2012, dated 2014).
